The test system of assay [1] is p42/44 MAPK phosphorylation. Put plainly: Western blot of p42/44 MAPK phosphorylation in PSMC. It counts as cell-based, porcine. The following applies: PDGF-BB stimulation 5 minutes; 17βE 10^−8 mol/L 30-minute pretreatment. On the procedure:
(§1) FIG. 4: Contribution of ERα and ERβ on p42/44 and p38 MAPK activation in PSMC. PSMC were seeded at 1×10^6 cells/100-mm culture plate and grown to confluence. Cells were treated either with antisense or scrambled oligomers as described in the methods. Cells were then treated with or without 17βE (10^−8 mol/L) for 30 minutes and stimulated 5 minutes for p42/44 MAPK (A) or 30 minutes for p38 MAPK (B) with PDGF-BB. Proteins were detected by Western blot analyses. Image densitometry results are given as relative expression (%) as compared to control PBS-treated cells.
(§2) The efficiency and specificity of our antisense oligomers to prevent the expression of targeted proteins were evaluated by Western blot analyses. Culture medium of confluent PAEC and PSMC (100-mm tissue culture plate) was removed, the cells were rinsed with Dulbecco's modified eagle medium (DMEM; Life Technologies Inc., Carlsbad, Calif.) and trypsinized (trypsine-EDTA; Life Technologies). Cells were resuspended in DMEM containing 5% of fetal bovine serum (FBS) (Hyclone Laboratories, Logan, Utah) and antibiotics (penicillin and streptomycin, Sigma, St-Louis, Mo.), and a cell count was obtained with a Coulter counter Z1 (Coulter Electronics, Luton, UK). […] Plates were incubated at 4° C. for 30 minutes and scraped, and the protein concentration was determined with a Bio-Rad protein assay kit (Bio-Rad, Hercules, Calif.). […]
(A western blot detects proteins with antibodies after separation by electrophoresis.)

For assay [2], the system named is p42/44 MAPK phosphorylation. Put plainly: Western blot of p42/44 MAPK phosphorylation in PAEC. The assay is classed as cell-based, porcine. The conditions noted are these: 17βE 10^−8 mol/L, 5 minutes; vs PBS-treated PAEC. As to the method: (§3) FIG. 7: Contribution of ERα and ERβ on p42144 and p38 MAPK activation in PAEC. PAEC were seeded at 1×10^6 cells/100-mm culture plate and grown to confluence. Cells were treated either with antisense or scrambled oligomers as described in the methods. Cells were then treated with or without 17βE (10^−8 mol/L) for 5 minutes for p42/44 MAPK activation (A) or 30 minutes for p38 MAPK stimulation (B). Proteins were detected by Western blot analyses. Image densitometry results are given as relative expression (%) as compared to control PBS-treated cells.
as §2

In assay [3] the test system is porcine aortic endothelial cells (PAEC). Put plainly: Mitogenic assay, PAEC proliferation. It counts as cell-based. The conditions noted are these: 17βE 10^−8 mol/L, compared to cells treated with FBS 1%; 3 days. As to the method: FIG. 5: Contribution of ERα and ERβ on PAEC proliferation. PAEC were seeded at 1×10^4 cells/well and stimulated with or without antisense oligomers as described in the methods. Cells were then stimulated with or without 17βE (10^−8 mol/L) and a cell count achieved 72 hours post-treatment. The values are means of cell counts obtained from 6 wells for each treatment. *, P<0.05 as compared to day 0; †, P<0.05 as compared to control (1% FBS); ‡, P<0.05 as compared to cells treated with 17βE (10^−8 mol/L).
(§4) Confluent PAEC and PSMC were rinsed with DMEM and trypsinized. Cells were resuspended in 10 mL of DMEM, 5% FBS, and antibiotics, and a cell count was obtained by using a Coulter counter Z1. PAEC and PSMC were initially seeded at 1×10^4 cells/well of 24-well tissue culture plates stimulated for 24 hours in DMEM, 5% FBS, and antibiotics with or without antisense oligomers (10^−6 mol/L), and starved for 48 hours in DMEM, 0.1% FBS, and antibiotics with or without antisense oligomers (10^−6 mol/L daily) for Go synchronization. The cells were stimulated for 72 hours in DMEM, 1% FBS, antibiotics with or without antisense oligomers (10^−6 mol/L daily) and with or without of 17βE (10^−8 mol/L). After trypsinization, cell number was determined by using a Coulter counter Z1.

Assay [4] has the same test system. Put plainly: Chemotactic assay (modified Boyden chamber), PAEC migration. The assay is classed as cell-based. The following applies: 17βE 10^−8 mol/L, 5 hours, compared to cells treated with FBS 1%. On the procedure:
FIG. 6: Contribution of ERα and ERβ on PAEC migration. PAEC were trypsinized and resuspended in DMEM; 2.5×10^5 cells/well of a six-well tissue culture plate were stimulated with or without antisense oligomers as described in the methods. 2.5×10^4 cells were added in the higher compartment of the modified Boyden chamber apparatus with or without antisense oligomers, and the lower chamber was filled with DMEM 1% FBS, and antibiotics with or without 17βE (10^−8 mol/L). Five hours postincubation at 37° C., the migrated cells were fixed, stained and counted by using a microscope adapted to a digitized video camera. The values are represented as relative mean of migrating cells/mm^2 from 6 chambers for each treatment. *, P<0.05 as compared to unstimulated cells; t, P<0.05 as compared to cells treated with 17βE (10^−8 mol/L).
(§5) Cell migration was evaluated using a modified Boyden 48-well microchamber kit (NeuroProbe, Cabin John, Md.). Near confluent PAEC and PSMC were rinsed with DMEM and trypsinized. Cells were resuspended in DMEM, 5% FBS, and antibiotics, and a cell count was obtained. […] The filter was then mounted on a glass slide, and migrated cells were counted using a microscope adapted to a video camera to obtain a computer-digitized image. […]

For assay [5] the following is noted: local delivery following coronary angioplasty in pigs; cited from earlier work.
Assay [6] has as its system porcine smooth muscle cells (PSMC). Put plainly: Mitogenic assay, PSMC proliferation. The assay is classed as cell-based. The following applies: 17βE (10^−8 mol/L); 72 hours. On the procedure:
FIG. 2: Contribution of ERα and ERβ on PSMC proliferation. PSMC were seeded at 1×10^4 cells/well and stimulated with or without antisense oligomers as described in the methods. Cells were then stimulated with or without 17βE (10^−8 mol/L) and a cell count achieved 72 hours post-treatment. The values are means of cell counts obtained from 6 wells for each treatment. *, P<0.05 as compared to day 0; t, P<0.05 as compared to control (1% FBS); *, P<0.05 as compared to cells treated with 17βE ([…]).
as §4

Assay [7] has the same test system. Put plainly: Chemotactic assay (modified Boyden chamber), PSMC migration. The assay is classed as cell-based. The following applies: PDGF-BB 10 ng/mL. As to the method:
FIG. 3: Contribution of ERα and ERβ on PSMC migration. PSMC were trypsinized and resuspended in DMEM; 2.5×10^5 cells/well of a six-well tissue culture plate were stimulated with or without antisense oligomers as described in the methods. 2.5×10^4 cells were added in the higher compartment of the modified Boyden chamber apparatus with or without antisense oligomers, and the lower chamber was filled with DMEM 1% FBS, and antibiotics with or without PDGF-BB (10 ng/ml). Five hours postincubation at 37° C., the migrated cells were fixed, stained and counted by using a microscope adapted to a digitized video camera. The values are represented as relative mean of migrating cells from 6 chambers for each treatment. *, P<0.05 as compared unstimulated cells; †, P<0.05 as compared to cells treated with PDGF-BB; ‡, P<0.05 as compared to cells treated with 17βE (10^−8 mol/L).
as §5

Assay [8] concerns p38 MAPK phosphorylation. Put plainly: Western blot of p38 MAPK phosphorylation in PAEC. The following applies: 17βE, 30 minutes stimulation; vs PBS-treated PAEC. The assay is classed as cell-based, porcine. As to the method: as §3, §2
Assay [9] has as its system p38 MAPK phosphorylation. Put plainly: Western blot of p38 MAPK phosphorylation in PSMC. It counts as cell-based, porcine. The following applies: PDGF-BB stimulation 30 minutes; 17βE 10^−8 mol/L 30-minute pretreatment. As to the method:
as §1, §2

The source of these data is patent US20080214517A1, “Modulation of the Expression of Estrogen Receptors for the Prevention or Treatment of Heart Disease” (priority 2003, published 2008).

For the molecule `C[C@]12CC[C@@H]3c4ccc(O)cc4CC[C@H]3[C@@H]1CC[C@@H]2O` [17βE, 17-beta-estradiol], the “p42/44 MAPK phosphorylation in PSMC (in words)” value in assay [1] is on record as “reversed”. Moreover, the “increase of p42/44 MAPK phosphorylation in PAEC” value in assay [2] stood at 317%. Moreover, the “enhancement of PAEC proliferation” value in assay [3] is 123%. Further, the “promotion of PAEC migration” value in assay [4] was determined as 363%. In [5], the “endothelial NO synthase (eNOS) expression (in words)” value is on record as “improving”, the “neointimal formation (in words)” value is “reducing” and the “reendothelialization process (in words)” value is given as “improving”. The “prevention of PSMC proliferation mediated by FBS 1%” value in [6] was 95%. For the same molecule, in [7] (17βE 10^−8 mol/L), the “inhibition of the chemotactic effect of PDGF-BB on PSMC (in words)” value is given as “inhibited completely”. Moreover, in the assay on p38 MAPK phosphorylation [8], the “increase of p38 MAPK phosphorylation in PAEC” value came to 254%. Moreover, in the assay with p38 MAPK phosphorylation [9], the “p38 MAPK phosphorylation in PSMC (in words)” value is “reversed”.

B1: PDGF-BB: platelet-derived growth factor-BB, agonist used to stimulate PSMC migration and MAPK phosphorylation (protein, UniProt P01127 82-190, looked up)
Platelet-derived growth …: SLGSLTIAEPAMIAECKTRTEVFEISRRLIDRTNANFLVWPPCVEVQRCSGCCNNRNVQCRPTQVQLRPVQVRKIEIVRKKPIFKKATVTLEDHLACKCETVAAARPVT
As for B1, the “p42/44 MAPK phosphorylation in PSMC (in words)” value in [1] is recorded as “increased”. Also, the “increase of basal migration of PSMC” value in [7] (5 hours, compared to cells treated with FBS 1%) was 141%. Further, the “p38 MAPK phosphorylation in PSMC (in words)” value with p38 MAPK phosphorylation [9] was “increased”.
